Data taken from patent US20250320233A1, “ARGINASE INHIBITOR AND PHARMACEUTICAL COMPOSITION COMPRISING THE SAME” (Daewoong Pharmaceutical Co., Ltd., priority 2022, published 2025).
Structures can show the parent of a compound that is named as a salt. Where two headings read alike, the source gives them in different places.

Legend:
[1] = target: Arginase-1 (Homo sapiens (Human), UniProt P05089); experiment: Arginase inhibitory activity test; type: biochemical; details: Arginase-1, L-arginine substrate, absorbance at 450 nm
Sequence of Arginase-1 (P05089 whole entry, species assumed): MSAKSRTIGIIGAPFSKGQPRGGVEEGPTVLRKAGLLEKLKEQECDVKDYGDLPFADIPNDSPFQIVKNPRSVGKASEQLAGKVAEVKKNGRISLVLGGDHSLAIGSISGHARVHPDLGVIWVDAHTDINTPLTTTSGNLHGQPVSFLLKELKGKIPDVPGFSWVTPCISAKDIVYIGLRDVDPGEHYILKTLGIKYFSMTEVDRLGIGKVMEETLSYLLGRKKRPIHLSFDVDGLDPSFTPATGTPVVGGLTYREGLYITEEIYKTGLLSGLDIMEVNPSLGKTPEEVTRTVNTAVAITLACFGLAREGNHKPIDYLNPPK
Method: An arginase inhibitory activity test was conducted for the compound according to the present disclosure.
Specifically, all reagents required for evaluation were diluted in a reaction buffer (8 mM NAHPO4, 2 mM KH2PO4, pH 7.5, 137 mM NaCl, 2.7 mM KCl, and 0.05% Tween-20), and the compound was dissolved in DMSO and then diluted, and then diluted in the reaction buffer to conform to the desired concentration. 10 μL of the compound and 10 μL of 30 nM Arginase-1 were mixed in a transparent 96-well plate (SPL), and incubated at room temperature for 1 hour or more. After that, 10 μL of 15 mM L-arginine and 3 mM MnCl2 were added to the plate, and then reacted at room temperature for 30 minutes or more. Finally, 30 μL of a 1:1 mixture of reagent A (10 mM o-phthaldialdehyde, 0.4% polyoxyethylene lauryl ether, and 1.8M sulfuric acid in DW) and reagent B (1.3 mM primaquine diphosphate, 0.4% polyoxyethylene lauryl ether, and 3.6 M sulfuric acid in DW) was added to complete the enzyme reaction, and incubated at room temperature for 1 hour or more. The plate after incubation was measured for absorbance at 450 nm using a Flexstation3 multi-mode microplate reader (Molecular Devices).
The background control (BC) reading value was subtracted from all reading values to obtain the ΔOD for each reading value. The ΔOD of the enzyme control (EC) was set to the maximum value, and the % relative Arginase-1 activity of each compound (S) was calculated using the following Equation, and the IC50 value of the compound was determined using PRISM (GraphPad software).

[2] = tested on: Primary Peripheral Blood Mononuclear Cells (PBMC); experiment: PBMC activity evaluation test (T cell proliferation suppressed by synthetic arginase 1, CellTiter-Glo); type: cell-based
Method: A Primary Peripheral Blood Mononuclear Cells (PBMC) activity test was performed for the compound according to the present disclosure. […] To evaluate the proliferation of T cells, the CellTiter-Glo® Luminescent Cell Viability (Promega, Catalog #G7571) evaluation method was used, which can confirm the proliferation of cells by quantifying the ATP present in the cells. In addition to the compound according to the present disclosure, the compound CB-1158 (Numidargistat) was also tested together for comparison.
Specifically, α-CD3 antibody was coated on a clear 96-well microplate. 1×10^5 PBMC cells were placed in each well. RPMI media (10% FBS, 1% penicillin/streptomycin) was used as the cell culture medium. α-CD28 antibody and synthetic arginase 1 were added to each well. The compounds prepared in Examples were treated at different concentrations (2, 1, 0.5, 0.25, 0.125, 0.0625, 0.03125 μM). After incubating for 72 hours, 50 μL of cells from each well were transferred to a white 96-well microplate, and mixed with 50 μL of CellTiter-Glo® solution.
After performing the reaction at room temperature for 10 minutes in the state where light was blocked, the luminescence was measured. The measurement results for each compound were calculated using Excel, and the EC50 value was calculated using GraphPad Prism software.

Molecule `CC(C)[C@H](N)C(=O)N1CC[C@H]2[C@@H]1CN[C@@]2(CCCCB(O)O)C(=O)O` [Example 6, (3aS,4R,6aR)-1-((S)-2-amino-3-methylbutanoyl)-4-(4-boronobutyl)octahydropyrrolo[3,4-b]pyrrole-4-carboxylic acid dihydrochloride] has an IC50 [1] of over 1000 nM.

`O=C([C@@H]1CCCN1)N1CC[C@H]2[C@@H]1CN[C@@]2(CCCCB(O)O)C(=O)O` [Example 4, (3aS,4R,6aR)-4-(4-boronobutyl)-1-((S)-pyrrolidine-2-carbonyl)octahydropyrrolo[3,4-b]pyrrole-4-carboxylic acid dihydrochloride] was tested, and the IC50 [1] was 100 to 1000 nM.

`C[C@@H](N)C(=O)N1CC[C@H]2[C@@H]1CN[C@@]2(CCCCB(O)O)C(=O)O` [Example 9, (3aS,4R,6aR)-1-((R)-2-aminopropanoyl)-4-(4-boronobutyl)octahydropyrrolo[3,4-b]pyrrole-4-carboxylic acid dihydrochloride] was tested, and the IC50 [1] was over 1000 nM.

Molecule `C[C@H](O)[C@@H](N)C(=O)N1CC[C@H]2[C@@H]1CN[C@@]2(CCCCB(O)O)C(=O)O` [Example 5, (3aS,4R,6aR)-1-((2R,3S)-2-amino-3-hydroxybutanoyl)-4-(4-boronobutyl)octahydropyrrolo[3,4-b]pyrrole-4-carboxylic acid dihydrochloride] has an IC50 [1] of 100 to 1000 nM.

`CC(C)C[C@H](N)C(=O)N1CC[C@H]2[C@@H]1CN[C@@]2(CCCCB(O)O)C(=O)O` [Example 7, (3aS,4R,6aR)-1-((S)-2-amino-4-methylpentanoyl)-4-(4-boronobutyl)octahydropyrrolo[3,4-b]pyrrole-4-carboxylic acid dihydrochloride] showed an IC50 [1] of over 1000 nM.

`CNCCN1CC[C@H]2[C@@H]1CN[C@@]2(CCCCB(O)O)C(=O)O` [Example 28, (3aS,4R,6aR)-4-(4-boronobutyl)-1-(2-(methylamino)ethyl)octahydropyrrolo[2,3-c]pyrrole-4-carboxylic acid hydrochloride] was tested, and the IC50 [1] was 100 to 1000 nM.

`O=C(O)[C@]1(CCCCB(O)O)NC[C@@H]2NCC[C@@H]21` [Example 1, (3aS,4R,6aR)-4-(4-boronobutyl)octahydropyrrolo[3,4-b]pyrrole-4-carboxylic acid dihydrochloride] gave an IC50 [1] of under 100 nM and an EC50 ([2]; PBMC with α-CD3/α-CD28 antibodies and synthetic arginase 1, 72 hours, CellTiter-Glo luminescence, read-out: EC50) of under 100 nM.

Molecule `N[C@@H](Cc1ccccc1)C(=O)N1CC[C@H]2[C@@H]1CN[C@@]2(CCCCB(O)O)C(=O)O` [Example 3, (3aS,4R,6aR)-1-((S)-2-amino-3-phenylpropanoyl)-4-(4-boronobutyl)octahydropyrrolo[3,4-b]pyrrole-4-carboxylic acid dihydrochloride] has an IC50 [1] of 100 to 1000 nM.

Molecule `C[C@H](N)C(=O)N1C[C@H](CCCB(O)O)[C@](N)(C(=O)O)C1` [CB-1158 (Numidargistat), Numidargistat, reference compound] has an EC50 ([2]; PBMC, 72 h) of 100 to 500 nM.

Molecule `C[C@H](N)C(=O)N1CC[C@H]2[C@@H]1CN[C@@]2(CCCCB(O)O)C(=O)O` [Example 2, (3aS,4R,6aR)-1-((S)-2-aminopropanoyl)-4-(4-boronobutyl)octahydropyrrolo[3,4-b]pyrrole-4-carboxylic acid dihydrochloride] has an IC50 [1] of 100 to 1000 nM.

Molecule `CN1CC[C@H]2[C@@H]1CN[C@@]2(CCCCB(O)O)C(=O)O` [Example 27, (3aS,4R,6aR)-4-(4-boronobutyl)-1-methyloctahydropyrrolo[3,4-b]pyrrole-4-carboxylic acid hydrochloride] has an IC50 [1] of under 100 nM.
